The values that follow come from ChEMBL document CHEMBL2073830, “A novel inhibitor of the mammalian peptide transporter PEPT1” (Biochemistry, 2001).

Non-standard residues stand in square brackets, D forms with d. Residues, ends and D or L forms follow the SMILES beside them. *: point of attachment. Cbz = O=C(OCc1ccccc1)*

In this assay the target is T1, Solute carrier family 15 member 1 (Homo sapiens, UniProt P46059).
T1 sequence (P46059 whole entry): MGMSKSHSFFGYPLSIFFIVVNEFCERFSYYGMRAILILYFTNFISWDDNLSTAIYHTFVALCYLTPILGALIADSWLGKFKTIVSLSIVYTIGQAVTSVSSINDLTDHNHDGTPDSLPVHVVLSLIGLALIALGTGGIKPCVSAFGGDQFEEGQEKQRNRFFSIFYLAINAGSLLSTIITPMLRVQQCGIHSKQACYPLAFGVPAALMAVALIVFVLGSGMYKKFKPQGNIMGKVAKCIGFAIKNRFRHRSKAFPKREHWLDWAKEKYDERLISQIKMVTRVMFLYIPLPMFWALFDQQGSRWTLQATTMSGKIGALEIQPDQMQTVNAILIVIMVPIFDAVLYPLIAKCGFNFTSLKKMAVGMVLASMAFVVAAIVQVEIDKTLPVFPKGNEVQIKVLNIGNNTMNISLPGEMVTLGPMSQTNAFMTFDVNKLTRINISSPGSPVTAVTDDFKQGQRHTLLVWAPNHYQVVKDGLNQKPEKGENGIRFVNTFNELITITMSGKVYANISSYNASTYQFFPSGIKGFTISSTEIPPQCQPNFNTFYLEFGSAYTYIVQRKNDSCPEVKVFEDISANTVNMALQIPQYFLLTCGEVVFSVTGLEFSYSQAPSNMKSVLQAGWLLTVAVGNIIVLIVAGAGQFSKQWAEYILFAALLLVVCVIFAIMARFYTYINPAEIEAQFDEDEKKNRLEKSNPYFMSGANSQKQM
Kind of assay: TP_TRANSPORTER: inhibition of Gly-Sar uptake in Caco-2 cells. The format is functional, cell-based.
As to `N[C@@H](CCCCNC(=O)OCc1ccc([N+](=O)[O-])cc1)C(=O)N1CCC[C@H]1C(=O)O`, affinity was put at a Ki of 19 µM.

For the compound `NCCCC[C@H](NC(=O)OCc1ccccc1)C(=O)N1CCC[C@H]1C(=O)O` (Cbz-Lys-Pro-OH), the affinity corresponds to a Ki of 33 µM. Against the preceding compound, the Ki is about 1.7-fold higher.

For the compound `NCCCC[C@H](N)C(=O)N1CCC[C@@H]1C(=O)O` (H-Lys-[dP]-OH), the Ki (in general, the dissociation constant of the complex between target and ligand, obtained from inhibition or displacement) was 350 µM.
